We go through 16 substances from publication PMC13199644, “Optimized Quantitative Bacterial Two-Hybrid (qB2H) for Protein–Protein Interaction Assessment” (Computational and Structural Biotechnology Journal, 2026).

In test [1] the test system is ASF1BN. The experiment in a line: qB2H v4 binder selection, long-term turbidostat (Chi.Bio), kanamycin 209 μg/ml, NGS enrichment/frequency. It counts as cell-based. The settings on record: kanamycin 209 μg/ml (120% MIC50), TF/T0 frequency ratio. The protocol:
(§1) Design and selection of binders
(§2) An AI pipeline integrating RFdiffusion, ProteinMPNN, and AlphaFold2 (detailed in Supplementary Methods) was implemented to design N-terminal extensions of ip4_mutG, a weak ASF1 binder (Kd ~10 μM). Briefly, N-terminal extensions of 11 to 16 amino acids were fused to linkers (GSEAK, GSEK, or GSK) and appended to the ip4_mutG coding sequence. Rational designs and controls (flexible N-terminal extensions) were incorporated into the library, ordered as oligonucleotide pools (oPools, IDT), and cloned into the v4 series plasmid for transformation into SB39 cells. Library selection was performed in 2 experimental setups: (a) short batch selection and (b) prolonged continuous selection in a turbidostat (Chi.Bio [61]).
(§3) In the batch selection, induced cultures diluted to OD600 = 0.05 were exposed to kanamycin concentrations ranging from 0 to 348 μg/ml. […] Cultures were maintained at OD600 0.4 for 21 or 29 h, followed by an additional 3-h growth period after sample collection, totaling 24 and 32 h.
(§4) Plasmids extracted from samples taken before (T0) and after selection (TF) were sequenced by NGS (Illumina), and reads corresponding to expected sequences were quantified to assess relative frequencies and enrichment.
Long selection runs (continuous cultures under stable cell density—turbidostat)
Culture conditions before kanamycin-based selection were identical to those in “short selection runs in batches” including T0 sample preparation. However, the turbidostat function of Chi.Bio system^11,12 was used to implement a continuous culture over extended selection periods. […] Samples (10 mL) were recovered at 21 and 29 h after selection initiation and cultured for an additional 3 hours (final OD ~ 2.5) totalizing, respectively, 24 (TF_24h) or 32 hours (TF_32h) selection.
(§5) NGS sample preparation and analysis
(§6) NGS samples were prepared by PCR using primer OR2895 with one of primers from OR2890– OR2894: 98 °C for 1 min; 26 cycles of (98 °C for 15 s.; 65 °C for 15 s.; 72 °C for 1 min) and 72 °C for 3 min.
(§7) FASTQ-formatted assembled paired-end reads corresponding to the expected sequences were counted and their frequencies calculated. Enrichment of each variant was obtained by the TF/T0 frequency ratio.

A further test has as its target T1, SMT3 (Saccharomyces cerevisiae, UniProt Q12306).
T1 construct: SMT3; UNIPROT: Q12306; 2-97; Saccharomyces cerevisiae; expressed in transfected cells; host or cells: E. coli BL21(DE3) transformed with VN594 plus a pBRα rpoA-fusion plasmid
In words: qB2H v1 fluorescence, SMT3 (SUMO) vs SUMO-interacting motifs. The test is classed as cell-based, Escherichia coli. The settings on record: BL21(DE3), qB2H v1, cI-SMT3 2-97, IPTG(20µM). Here is the method: Precultures of untransformed (for intrinsic fluorescence evaluation) and transformed SB39 cells were diluted (3 μl into 300 μl of fresh medium) in 2-ml microtubes and grown in ThermoMixer C (Eppendorf; 37 °C at 900 rpm) for 2 h. Cultures with an OD600 of approximately 0.5 were then mixed with 100 μl of the same medium containing 4× inducer concentration. […] The induced cultures were grown overnight at 18 °C, diluted (1 μl) in freshly filtered (0.22 μm) phosphate-buffered saline buffer (1 ml per OD unit), and analyzed using guava easyCyte HT (488-nm blue laser). The gating for event analysis was set to minimize background noise (fewer than 100 gated events per 10 μl of sterile phosphate-buffered saline). Ten thousand events were collected per culture, and the MFI was recorded. […] Their MFI were used to normalize those of other conditions (x) using the following equation [Eq. (1)]: Normalized MFIx=MFIx−MFIlow/MFIhigh−MFIlow × 100 (1)
MFI(x) represents the MFI of a given condition or culture. […] Each experiment was conducted in 3 independent assays performed on different days. Figures were generated using Python notebooks in conjunction with Matplotlib.
Interactions involving distinct protein domains and folding variants were assessed using qB2H systems v1, v2, and v3. […] The x-axis labels indicate the qB2H version and the interacting partners, formatted as follows: (qB2H version) Partner_A–Partner_B (inducers). Anhydrotetracycline (aTc) concentrations are reported in ng/mL; IPTG concentrations are given in µM. All experimental conditions, acronyms, and constructs are defined in the Methods section.

Test [2] deals with ASF1BN. In words: qB2H v4 binder selection, short-term batch, kanamycin, NGS enrichment/frequency. Particulars: 4 to 5 h, SB39 v4, TF/T0 frequency ratio. It counts as cell-based, bacterial. The protocol: as §1, §2, §3, §4
Short selection runs (batches)
Glycerol stocks of mixed libraries were inoculated at approximately 18:00 in fresh media and grown overnight at 30 °C, to slow growth kinetics and reduce saturation-related stress (by decreasing the time spent in stationary phase). The grown cultures were diluted to OD600 = 0.05 in 150 mL of LB supplemented with 17 µg/mL chloramphenicol, 200 µM IPTG, 200 ng/mL aTc, and incubated (200 rpm, 37 °C) for 2 h (OD600 ~ 0.5). […] Assuming that sufficiently strong selection pressure can impact population growth over a short term (few hours), only cultures with OD at least 0.5 absorbance units lower than the OD of the culture without kanamycin after 4.5–5 h were retained for NGS analysis (TF-[ X µg/mL kan] samples).
as §5, §6, §7

The subject of a further test is TNFa. The experiment in a line: qB2H v3 fluorescence, TNFa vs VHH/ScFv. The test is classed as cell-based, Homo sapiens. Particulars: SB39, v3, cI-TNFa 77-233, aTc(200ng/mL) + IPTG(1000µM). Here is the method:
(§8) Precultures of untransformed (for intrinsic fluorescence evaluation) and transformed SB39 cells were diluted (3 μl into 300 μl of fresh medium) in 2-ml microtubes and grown in ThermoMixer C (Eppendorf; 37 °C at 900 rpm) for 2 h. Cultures with an OD600 of approximately 0.5 were then mixed with 100 μl of the same medium containing 4× inducer concentration. Final inducer concentrations, chosen on the basis of maximal signal output, were 20 μM IPTG for v1 or v2 and 200 μM IPTG plus […] for v3 series. The induced cultures were grown overnight at 18 °C, diluted (1 μl) in freshly filtered (0.22 μm) phosphate-buffered saline buffer (1 ml per OD unit), and analyzed using guava easyCyte HT (488-nm blue laser). The gating for event analysis was set to minimize background noise (fewer than 100 gated events per 10 μl of sterile phosphate-buffered saline). Ten thousand events were collected per culture, and the MFI was recorded. […]
(§9) MFI(x) represents the MFI of a given condition or culture. MFI(low) corresponds to the fluorescence produced by SB39 cells cotransformed with VN519 and VN550, indicating no detectable interaction (Kd > 100,000 nM). […]
Interactions involving distinct protein domains and folding variants were assessed using qB2H systems v1, v2, and v3. […]

The test system of test [3] is ASF1BN. In words: qB2H fluorescent reporter (eGFP MFI, flow cytometry or colonies), ASF1BN, v1 to v3. The test is classed as cell-based, human. Particulars: relative to ip3_mut3A and ip1. The protocol: qB2H experiments using a fluorescent reporter
as §8, §9
In general terms: Flow cytometry measures light scatter and fluorescence of single cells or particles in a stream.

Setting [4] is: ChiBio_T24_Kan209, turbidostat 24 h.
The mark [5] stands for this setting: ChiBio_T32_Kan209, turbidostat 32 h.
The mark [6] stands for this setting: Batch_Kan261, kanamycin 261 μg/ml (150% MIC50 of ASF1–ip3).
The mark [7] stands for this setting: Batch_Kan348, kanamycin 348 μg/ml (200% MIC50 of ASF1–ip3).

No end group written: not given here.

T1 sequence (Q12306 2-97): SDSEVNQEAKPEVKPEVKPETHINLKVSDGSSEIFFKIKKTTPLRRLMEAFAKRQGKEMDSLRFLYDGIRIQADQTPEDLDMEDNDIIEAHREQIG

Regarding “AAEEAARFAALLAALP-GSK-ip4_mutG [T32_Kan[209]_top2, AI design n°218 with GSK linker]”, the enrichment in the test with ASF1BN [1] (setting [4]) worked out at 7.72E+01; in the test with ASF1BN [1] (setting [5]), 8.39E+01. For the substance “CDC48 72-91: CDC48 P25694 region 72-91, SUMO-interacting motif peptide (KKRKDTVLIVLIDDELEDGA; UniProt P25694 72-91, looked up, fragment)”, the “Norm. MFI” value with SMT3 is 46.16%. As for “CDC48 431-450: CDC48 P25694 region 431-450, SUMO-interacting motif peptide (QQIREKMDLIDLDEDEIDAE; UniProt P25694 431-450, looked up, fragment)”, the “Norm. MFI” value with SMT3 is 9.91%. Consider “KPEAAASAAAEQAAFAALLAALPGSKWARLARRTAGAGGVTLNGAG [AI design n°217 with GSK linker]”, for which, in the test on ASF1BN [2] (setting [6]), the enrichment is 3.15E+00. As to “KPEAAASAAAEQAHFAALLAKLPGSKWARLARRTAGAGGVTLNGAG [AI design n°225 with GSK linker]”, the enrichment in the test with ASF1BN [2] (setting [7]) worked out at 4.18E+00. As for “KPEAAASAAEEQAAFDALLAALPGSKWARLARRTAGAGGVTLNGAG [AI design n°261 with GSK linker; third of turbidostat T32_Kan[209]]”, the enrichment is 6.25E+00 in the test with ASF1BN [1] (setting [4]) and 1.11E+01 in the test with ASF1BN [1] (setting [5]). For the substance “KPEAAASAEAEAARFAALLAALPGSKWARLARRTAGAGGVTLNGAG [AI design n°220 with GSK linker]”, the enrichment was determined as 4.84E-02 in the test on ASF1BN [1] (setting [4]) and 5.25E-02 in the test with ASF1BN [1] (setting [5]). On to “KPEAAASAEAERWAQALAALPGSKWARLARRTAGAGGVTLNGAG [AI design n°32 with GSK linker]”, for which the enrichment in the test with ASF1BN [2] (setting [6]) was found to be 4.25E+00. As for “KPEAAASAEEEEAAFAALLAALPGSKWARLARRTAGAGGVTLNGAG [AI design n°233 with GSK linker]”, the enrichment worked out at 1.42E+00 in the test with ASF1BN [1] (setting [4]) and 2.04E+00 in the test on ASF1BN [1] (setting [5]). For “KPEAAASAEEEQARFAALLAALPGSKWARLARRTAGAGGVTLNGAG [AI design n°250 with GSK linker]”, the enrichment in the test with ASF1BN [2] (setting [7]) worked out at 4.27E+00.

Take “KPEAAASDAAARFAAALAALPGSKWARLARRTAGAGGVTLNGAG [AI design n°37 with GSK linker]”: in the test on ASF1BN [2] (setting [6]), the enrichment is on record as 4.90E+00. Regarding “KPEAAASMSSHQLWKQWGGGSEKWARLARRTAGAGGVTLNGAG [Rational design n°84 with GSEK linker]”, in the test with ASF1BN [2] (setting [6]), the enrichment came out at 2.46E+00. As to “KPEAAASSAAERFAAALAALPGSKWARLARRTAGAGGVTLNGAG [AI design n°47 with GSK linker; third of batch Kan[348]]”, the enrichment in the test on ASF1BN [2] (setting [7]) came out at 4.66E+00.

In the case of “ScFv (D2E7): Adalimumab ScFV; WIPO: WO2011084714A2”, the “Norm. MFI” value in the test with TNFa was 8.76%. Take “Srs2_SIM: SUMO-interacting motif, P12954 1164-1174, Saccharomyces cerevisiae (KLNNGEIIVID; UniProt P12954 1164-1174, looked up, fragment)”: the “Norm. MFI” value with SMT3 was determined as 62.95%.

As to WARLARRTAGAGGVTLNGAG [ip4_mutG], the qB2H signal entry in the test with ASF1BN [3] was “between ip3_mut3A and ip1”.
